Reference: patent publication US11388901B2, “Herbicidal azines” (BASF SE, priority 2017, dated 2022)

Experiments:
Format in all cases: in vivo
[1] = system: Amaranthus retroflexus; assay: greenhouse pre-emergence herbicidal test; conditions: scale 0 to 100
Source text: The seeds of the test plants were sown separately for each species. For the pre-emergence treatment, the active ingredients, which had been suspended or emulsified in water, were applied directly after sowing by means of finely distributing nozzles. The containers were irrigated gently to promote germination and growth and subsequently covered with transparent plastic hoods until the plants had rooted. This cover caused uniform germination of the test plants, unless this had been impaired by the active ingredients. […] The test period extended over 2 to 4 weeks. During this time, the plants were tended, and their response to the individual treatments was evaluated. Evaluation was carried out using a scale from 0 to 100. 100 means no emergence of the plants, or complete destruction of at least the aerial moieties, and 0 means no damage, or normal course of growth. A moderate herbicidal activity is given at values of at least 60, a good herbicidal activity is given at values of at least 70, and a very good herbicidal activity is given at values of at least 85. The plants used in the greenhouse experiments were of the following species: […]

[2] = system: Echinocloa crus-galli; assay: greenhouse pre-emergence herbicidal test; conditions: 250 g/ha, scale 0 to 100
Source text: (§1) The culture containers used were plastic flowerpots containing loamy sand with approximately 3.0% of humus as the substrate. The seeds of the test plants were sown separately for each species.
(§2) For the pre-emergence treatment, the active ingredients, which had been suspended or emulsified in water, were applied directly after sowing by means of finely distributing nozzles.
(§3) The containers were irrigated gently to promote germination and growth and subsequently covered with transparent plastic hoods until the plants had rooted. This cover caused uniform germination of the test plants, unless this had been impaired by the active ingredients.
(§4) Depending on the species, the plants were kept at 10-25° C. or 20-35° C., respectively.
(§5) The test period extended over 2 to 4 weeks. During this time, the plants were tended, and their response to the individual treatments was evaluated.
(§6) Evaluation was carried out using a scale from 0 to 100. 100 means no emergence of the plants, or complete destruction of at least the aerial moieties, and 0 means no damage, or normal course of growth. A moderate herbicidal activity is given at values of at least 60, a good herbicidal activity is given at values of at least 70, and a very good herbicidal activity is given at values of at least 85.
(§7) The plants used in the greenhouse experiments were of the following species: […]

[3] = system: Setaria faberi; assay: greenhouse pre-emergence herbicidal test; conditions: scale 0 to 100
Source text: as §1, §2, §3, §4, §5, §6, §7

[4] = system: Apera spica-venti; assay: greenhouse pre-emergence herbicidal test; conditions: scale 0 to 100
Source text: as §1, §2, §3, §4, §5, §6, §7

[5] = system: Abutilon theophrasti; assay: greenhouse post-emergence herbicidal test; conditions: 250 g/ha, scale 0 to 100
Source text: as §1
(§8) For the post-emergence treatment, the test plants were first grown to a height of 3 to 15 cm, depending on the plant habit, and only then treated with the active ingredients which had been suspended or emulsified in water. For this purpose, the test plants were either sown directly and grown in the same containers, or they were first grown separately as seedlings and transplanted into the test containers a few days prior to treatment.
as §4, §5, §6, §7

[6] = system: Amaranthus retroflexus; assay: greenhouse post-emergence herbicidal test; conditions: 250 g/ha, scale 0 to 100
Source text: as §1, §8, §4, §5, §6, §7

[7] = system: Echinocloa crus-galli; assay: greenhouse post-emergence herbicidal test; conditions: 250 g/ha, scale 0 to 100
Source text: as §1, §8, §4, §5, §6, §7

[8] = system: Setaria viridis; assay: greenhouse post-emergence herbicidal test; conditions: 250 g/ha, scale 0 to 100
Source text: as §1, §8, §4, §5, §6, §7

[9] = system: Alopercurus myosuroides; assay: greenhouse pre-emergence herbicidal test; conditions: scale 0 to 100
Source text: as §1, §2, §3, §4, §5, §6, §7

[10] = system: Lolium multiflorum; assay: greenhouse pre-emergence herbicidal test; conditions: 250 g/ha, scale 0 to 100
Source text: as §1, §2, §3, §4, §5, §6, §7

[11] = system: Abutilon theophrasti; assay: greenhouse pre-emergence herbicidal test; conditions: 250 g/ha, scale 0 to 100
Source text: as §1, §2, §3, §4, §5, §6, §7

Row | SMILES | herbicidal activity ([1]; 250 g/ha) [%] | herbicidal activity [2] [%] | herbicidal activity ([3]; 250 g/ha) [%] | herbicidal activity ([9]; 250 g/ha) [%] | also measured
1 | CC1CCC(c2nc(N)nc(Nc3c(F)ncc(F)c3Cl)n2)CC1 (centres unmarked) [Example 23] | 95 | – | – | – | –
2 | Nc1nc(Nc2c(F)ncc(F)c2Cl)nc(C2(F)CCCC2)n1 [Example 12] | 100 | 98 | 100 | – | –
3 | CC(C)(F)c1nc(N)nc(Nc2c(F)nc(F)c(F)c2OCC(F)(F)F)n1 [Example 65] | 100 | – | – | – | herbicidal activity ([4]; 250 g/ha): 100%; herbicidal activity [5]: 100%; herbicidal activity [6]: 100%; herbicidal activity [7]: 95%
4 | Cc1ccnc(F)c1Nc1nc(N)nc(C2(F)CCCC2)n1 [Example 54] | 100 | – | 100 | – | herbicidal activity ([4]; 250 g/ha): 98%; herbicidal activity [8]: 80%
5 | CC(F)c1nc(N)nc(Nc2c(F)ncc(F)c2Cl)n1 (racemic) [Example 8] | 100 | 90 | 100 | – | –
6 | CCCC(F)(F)c1nc(N)nc(Nc2c(F)ncc(F)c2Cl)n1 [Example 37] | 100 | – | 100 | 100 | –
7 | Nc1nc(Nc2c(F)ncc(F)c2Cl)nc(C2(Cl)CCCC2)n1 [Example 21] | 100 | – | 95 | – | –
8 | COC1(c2nc(N)nc(Nc3c(F)ncc(F)c3Cl)n2)CCCC1 [Example 10] | 100 | – | – | 100 | herbicidal activity [10]: 95%
9 | Nc1nc(Nc2c(F)ncc(F)c2Br)nc(C(F)C2CCCC2)n1 (centres unmarked) [Example 61] | 100 | – | 100 | 90 | –
10 | Nc1nc(Nc2c(F)ncc(F)c2Cl)nc(C2CCCC2)n1 [Example 6] | 90 | – | – | 80 | –
11 | CCC(F)(CC)c1nc(N)nc(Nc2c(F)ncc(F)c2Br)n1 [Example 52] | 100 | 100 | 100 | – | –
12 | CC(C)(Cl)c1nc(N)nc(Nc2c(F)ncc(F)c2Cl)n1 [Example 36] | 100 | – | 100 | 100 | –
13 | CC(C)(C)c1nc(N)nc(Nc2c(F)ncc(F)c2Cl)n1 [Example 2, 6-tert-butyl-N4-(4-chloro-2,5-difluoro-3-pyridyl)-1,3,5-triazine-2,4-diamine] | – | – | – | – | herbicidal activity ([1]; 125 g/ha): 100%; herbicidal activity ([4]; 125 g/ha): 90%
14 | Nc1nc(Nc2c(F)ncc(F)c2Cl)nc(C2(F)CC=CC2)n1 [Example 19] | 100 | 100 | 100 | – | –
15 | CCCC(F)c1nc(N)nc(Nc2c(F)ncc(F)c2Cl)n1 (racemic) [Example 13] | 100 | 100 | 100 | – | –
16 | CC1(c2nc(N)nc(Nc3c(F)ncc(F)c3Cl)n2)CCCC1 [Example 14] | 85 | – | – | – | –
17 | CC(C)(C#N)c1nc(N)nc(Nc2c(F)ncc(F)c2Cl)n1 [Example 28] | 100 | – | – | – | –
18 | CC1(c2nc(N)nc(Nc3c(F)ncc(F)c3Cl)n2)CC1 [Example 33] | 98 | – | – | – | –
19 | CC(C)(CO)c1nc(N)nc(Nc2c(F)ncc(F)c2Cl)n1 [Example 40] | 100 | – | 95 | 90 | –

Row | SMILES | herbicidal activity ([1]; 250 g/ha) [%] | herbicidal activity [2] [%] | herbicidal activity ([3]; 250 g/ha) [%] | herbicidal activity ([9]; 250 g/ha) [%] | also measured
20 | Cc1ccnc(Cl)c1Nc1nc(N)nc(C(C)(C)F)n1 [Example 53] | 100 | – | 95 | – | herbicidal activity [11]: 100%; herbicidal activity [5]: 80%; herbicidal activity [6]: 98%
21 | C#CC(C)(F)c1nc(N)nc(Nc2c(F)ncc(F)c2Cl)n1 (centres unmarked) [Example 48] | 100 | 98 | 100 | – | –
22 | Nc1nc(Nc2c(Cl)ccnc2Cl)nc(C2(F)CCCC2)n1 [Example 47] | 100 | – | 100 | – | herbicidal activity [10]: 100%
23 | Nc1nc(Nc2c(F)ncc(F)c2Cl)nc(C2(F)CC2)n1 [Example 31] | 100 | 100 | – | 100 | –
24 | Nc1nc(Nc2c(F)nc(F)c(F)c2Cl)nc(C2(F)CCCC2)n1 [Example 69] | – | – | – | – | herbicidal activity ([1]; 125 g/ha): 100%; herbicidal activity ([9]; 125 g/ha): 100%; herbicidal activity ([3]; 125 g/ha): 100%
25 | CC(C)CC(F)(F)c1nc(N)nc(Nc2c(F)ncc(F)c2Cl)n1 [Example 38] | 100 | – | 90 | – | –
26 | Nc1nc(Nc2c(F)ncc(F)c2Br)nc(C2(F)CCCCC2)n1 [Example 51] | 100 | – | 100 | 100 | –
27 | Nc1nc(Nc2c(F)ncc(F)c2Cl)nc(C2(F)CCCCC2)n1 [Example 11] | 100 | – | 100 | 100 | –
28 | CCCC(F)c1nc(N)nc(Nc2c(F)ncc(F)c2Br)n1 (centres unmarked) [Example 46] | 100 | – | 100 | 98 | –
29 | CC(C)(F)c1nc(N)nc(Nc2c(F)ncc(F)c2I)n1 [Example 41] | 100 | – | 100 | 98 | –
30 | Nc1nc(Nc2c(F)ncc(F)c2Br)nc(C2(F)CCCC2)n1 [Example 43] | 100 | – | 100 | 100 | –
31 | CC(C)(F)c1nc(N)nc(Nc2c(F)ncc(F)c2Br)n1 [Example 35] | 100 | 100 | – | 100 | –
32 | Cc1nc(F)c(Nc2nc(N)nc(C(C)(C)F)n2)c(Cl)c1F [Example 32, N4-(4-Chloro-2,5-difluoro-6-methyl-3-pyridyl)-6-(1-fluoro-1-methyl-ethyl)-1,3,5-triazine-2,4-diamine] | 100 | 85 | – | 90 | –
33 | CC1(c2nc(N)nc(Nc3c(F)ncc(F)c3Cl)n2)CCC1 [Example 9] | 100 | 100 | – | 100 | –
34 | CC(C)(C)c1nc(N)nc(Nc2c(F)ncc(F)c2Cl)n1 [Example 7, 6-tert-butyl-N4-(4-chloro-2,5-difluoro-3-pyridyl)-1,3,5-triazine-2,4-diamine] | 90 | – | 95 | 98 | –
35 | Nc1nc(Nc2c(F)ncc(F)c2Cl)nc(C(F)C2CCCC2)n1 (racemic) [Example 20] | 100 | – | 100 | 100 | –
36 | CC(C)(F)c1nc(N)nc(Nc2c(F)ncc(F)c2Cl)n1 [Example 4] | 100 | 100 | – | 100 | –
37 | N#Cc1ccnc(Cl)c1Nc1nc(N)nc(C2(F)CCCC2)n1 [Example 60] | 98 | 85 | – | – | herbicidal activity ([4]; 250 g/ha): 95%; herbicidal activity [5]: 95%; herbicidal activity [6]: 80%
38 | CCCc1nc(F)c(Nc2nc(N)nc(C(C)(C)F)n2)c(Cl)c1F [Example 44] | 100 | – | – | – | –
